{"source": "ChEMBL document CHEMBL1177704", "about": "“Unexpected reaction of 2-alkylsulfanylimidazoles to imidazol-2-ones: pyridinylimidazol-2-ones as novel potent p38alpha mitogen-activated protein kinase inhibitors” (J Med Chem, 2010)", "key": {"Blood": {"tested_on": "Blood", "assay": "Antiinflammatory activity in human whole blood assessed as inhibition of LPS-stimulated TNFalpha release after 15 mins by ELISA", "assay_type": "functional, tissue-based", "conditions": "0.25 h"}, "[1]": {"molecular_target": "Mitogen-activated protein kinase 14 (Homo sapiens, UniProt Q16539)", "sequence (Q16539 whole entry)": "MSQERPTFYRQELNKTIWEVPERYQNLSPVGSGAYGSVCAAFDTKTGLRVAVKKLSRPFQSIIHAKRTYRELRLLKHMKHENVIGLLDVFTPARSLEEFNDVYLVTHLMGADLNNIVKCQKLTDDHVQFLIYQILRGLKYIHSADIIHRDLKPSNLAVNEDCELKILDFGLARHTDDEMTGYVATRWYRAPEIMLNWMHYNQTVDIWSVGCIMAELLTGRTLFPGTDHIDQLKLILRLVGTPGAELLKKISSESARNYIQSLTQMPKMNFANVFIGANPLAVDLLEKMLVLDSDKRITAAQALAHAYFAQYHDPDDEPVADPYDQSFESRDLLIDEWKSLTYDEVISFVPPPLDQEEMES", "assay": "Inhibition of p38alpha"}}}
{"smiles": "C[S+]([O-])c1ccc(-c2nc(-c3ccc(F)cc3)c(-c3ccncc3)[nH]2)cc1", "note": "(configuration not stated) [SB-203580]", "values": [{"measurement": "IC50", "setting": "Blood", "value": 1760, "unit": "nM"}]}
{"smiles": "CC(C)[C@H](C)Nc1cc(-c2[nH]c(=O)[nH]c2-c2ccc(F)cc2)ccn1", "values": [{"measurement": "IC50", "setting": "[1]", "value": 49, "unit": "nM"}, {"measurement": "IC50", "setting": "Blood", "value": 381, "unit": "nM"}]}
{"smiles": "O=c1[nH]c(-c2ccncc2)c(-c2ccc(F)cc2)[nH]1", "values": [{"measurement": "IC50", "setting": "[1]", "value": 468, "unit": "nM"}]}
{"smiles": "C[C@@H](Nc1cc(-c2[nH]c(=O)[nH]c2-c2ccc(F)cc2)ccn1)c1ccccc1", "values": [{"measurement": "IC50", "setting": "[1]", "value": 324, "unit": "nM"}]}
{"smiles": "O=c1[nH]c(-c2ccc(F)cc2)c(-c2ccnc(N[C@H]3CC[C@H](O)CC3)c2)[nH]1", "values": [{"measurement": "IC50", "setting": "[1]", "value": 23, "unit": "nM"}, {"measurement": "IC50", "setting": "Blood", "value": 2920, "unit": "nM"}]}
